Usually IC50 stands for the midpoint of a concentration-inhibition curve. The term EC50 denotes the concentration needed to bring the measured effect to its halfway point. Broadly, the Emax is the maximal effect, on the per cent scale that the assay sets.

“Also recorded” adds a separate entry of the source.

Data on eight compounds can be found in article PMC10304876 (Molecules, 2023).

The first data set deals with T1, human δ-opioid receptor (OPRD1) (Homo sapiens, UniProt P41143). The experiment in a line: Forskolin-induced cAMP accumulation assay, DOR antagonist.
T1 sequence (P41143 whole entry): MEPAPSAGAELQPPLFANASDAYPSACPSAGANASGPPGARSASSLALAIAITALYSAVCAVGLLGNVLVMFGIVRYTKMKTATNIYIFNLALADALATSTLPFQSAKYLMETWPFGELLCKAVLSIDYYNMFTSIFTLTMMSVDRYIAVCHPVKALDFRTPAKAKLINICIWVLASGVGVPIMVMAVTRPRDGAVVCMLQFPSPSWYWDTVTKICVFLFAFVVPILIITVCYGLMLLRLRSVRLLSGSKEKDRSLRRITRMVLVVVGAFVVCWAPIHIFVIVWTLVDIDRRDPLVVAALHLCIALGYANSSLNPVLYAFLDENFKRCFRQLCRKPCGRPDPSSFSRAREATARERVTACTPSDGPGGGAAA
Conditions: not given
Take `OC[C@H]1[C@@H]2CCC[C@@]1(c1cccc(O)c1)CCN2CCc1ccccc1` [Compound 15, 3-((1S,5R,9R)-9-(Hydroxymethyl)-2-phenethyl-2-azabicyclo[3.3.1]nonan-5-yl)phenol]: the IC50 came to 336 ± 139 nM.
Compound `OCCC[C@H]1[C@H]2CCC[C@]1(c1cccc(O)c1)CCN2CCc1ccccc1` [Compound 34, 3-((1R,5S,9R)-9-(3-Hydroxypropyl)-2-phenethyl-2-azabicyclo[3.3.1]nonan-5-yl)phenol] had an IC50 of 41 ± 5 nM.
With `COC[C@H]1[C@H]2CCC[C@]1(c1cccc(O)c1)CCN2CCc1ccccc1` [Compound 41, 3-((1R,5S,9R)-9-(Methoxymethyl)-2-phenethyl-2-azabicyclo[3.3.1]nonan-5-yl)phenol], 54 ± 14 nM corresponded to half-maximal inhibition (IC50).

The data set is the same for the next values; noted with them: cAMP assay; Imax normalized to naltrexone.
For `OC[C@H]1[C@@H]2CCC[C@@]1(c1cccc(O)c1)CCN2CCc1ccccc1` [Compound 15, 3-((1S,5R,9R)-9-(Hydroxymethyl)-2-phenethyl-2-azabicyclo[3.3.1]nonan-5-yl)phenol], the “DOR Antagonist %Imax ± SEM” value worked out at 109 ± 8%.
As for `OCCC[C@H]1[C@H]2CCC[C@]1(c1cccc(O)c1)CCN2CCc1ccccc1` [Compound 34, 3-((1R,5S,9R)-9-(3-Hydroxypropyl)-2-phenethyl-2-azabicyclo[3.3.1]nonan-5-yl)phenol], the “DOR Antagonist %Imax ± SEM” value is 111 ± 4%.
As for `COC[C@H]1[C@H]2CCC[C@]1(c1cccc(O)c1)CCN2CCc1ccccc1` [Compound 41, 3-((1R,5S,9R)-9-(Methoxymethyl)-2-phenethyl-2-azabicyclo[3.3.1]nonan-5-yl)phenol], the “DOR Antagonist %Imax ± SEM” value is reported as 80 ± 8%.

Still in this data set, the particulars now being: cAMP assay; versus EC50 of SNC80.
For the compound `OCCC[C@H]1[C@H]2CCC[C@]1(c1cccc(O)c1)CCN2CCc1ccccc1` [Compound 34, 3-((1R,5S,9R)-9-(3-Hydroxypropyl)-2-phenethyl-2-azabicyclo[3.3.1]nonan-5-yl)phenol], the “DOR Antagonist IC50 ± SEM (nM)” value is given as “weak DOR antagonist activity”.

For another data set, the target named is T2, human µ-opioid receptor β-arrestin2 (Homo sapiens, UniProt P35372).
T2 construct: EFC (enzyme fragment complementation) fragment; host or cells: PathHunter CHO-K1
T2 sequence (P35372 whole entry, the tested form may be a part): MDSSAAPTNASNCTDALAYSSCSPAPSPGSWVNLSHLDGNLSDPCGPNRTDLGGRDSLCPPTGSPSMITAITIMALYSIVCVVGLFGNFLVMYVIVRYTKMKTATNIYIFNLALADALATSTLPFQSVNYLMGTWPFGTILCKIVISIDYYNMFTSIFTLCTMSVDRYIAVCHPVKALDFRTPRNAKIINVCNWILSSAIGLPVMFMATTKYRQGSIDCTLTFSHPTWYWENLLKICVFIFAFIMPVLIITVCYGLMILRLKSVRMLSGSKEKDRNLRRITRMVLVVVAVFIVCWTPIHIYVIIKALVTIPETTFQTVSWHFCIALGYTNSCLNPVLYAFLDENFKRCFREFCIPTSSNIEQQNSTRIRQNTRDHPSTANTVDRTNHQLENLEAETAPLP
The experiment in a line: cell-based.
Conditions: not given
Take `OC[C@H]1[C@H]2CCC[C@]1(c1cccc(O)c1)CCN2CCc1ccccc1` [Compound 11, 3-((1R,5S,9R)-9-(Hydroxymethyl)-2-phenethyl-2-azabicyclo[3.3.1]nonan-5-yl)phenol]: the “Bias Factor” value was determined as 13.4 and the EC50 worked out at 187 nM.
`OC[C@H]1[C@@H]2CCC[C@@]1(c1cccc(O)c1)CCN2CCc1ccccc1` [Compound 15, 3-((1S,5R,9R)-9-(Hydroxymethyl)-2-phenethyl-2-azabicyclo[3.3.1]nonan-5-yl)phenol]: the EC50 was above 50000 nM.
The same measure, in the same setting: under `OCC[C@H]1[C@@H]2CCC[C@@]1(c1cccc(O)c1)CCN2CCc1ccccc1` [Compound 21, 3-((1S,5R,9R)-9-(2-Hydroxyethyl)-2-phenethyl-2-azabicyclo[3.3.1]nonan-5-yl)phenol] stands above 50000 nM.
As to `OCCC[C@H]1[C@H]2CCC[C@]1(c1cccc(O)c1)CCN2CCc1ccccc1` [Compound 34, 3-((1R,5S,9R)-9-(3-Hydroxypropyl)-2-phenethyl-2-azabicyclo[3.3.1]nonan-5-yl)phenol], the “Bias Factor” value turned out to be 14.0 and the EC50 was 34 nM.
In turn, `OCCC[C@H]1[C@@H]2CCC[C@@]1(c1cccc(O)c1)CCN2CCc1ccccc1` [Compound 36] returned an EC50 above 50000 nM.
Consider `COC[C@H]1[C@H]2CCC[C@]1(c1cccc(O)c1)CCN2CCc1ccccc1` [Compound 41, 3-((1R,5S,9R)-9-(Methoxymethyl)-2-phenethyl-2-azabicyclo[3.3.1]nonan-5-yl)phenol], for which the “Bias Factor” value was found to be 6.4 and it took 29 nM to reach a half-maximal effect (EC50).

The same data set, now with this note: read-out: MOR β-Arrestin Recruitment %Emax ± SEM.
Regarding `OC[C@H]1[C@H]2CCC[C@]1(c1cccc(O)c1)CCN2CCc1ccccc1` [Compound 11, 3-((1R,5S,9R)-9-(Hydroxymethyl)-2-phenethyl-2-azabicyclo[3.3.1]nonan-5-yl)phenol], the Emax was 2.7%.
The same measure, in the same setting: next, `OC[C@H]1[C@@H]2CCC[C@@]1(c1cccc(O)c1)CCN2CCc1ccccc1` [Compound 15, 3-((1S,5R,9R)-9-(Hydroxymethyl)-2-phenethyl-2-azabicyclo[3.3.1]nonan-5-yl)phenol]: 0%; `OCC[C@H]1[C@@H]2CCC[C@@]1(c1cccc(O)c1)CCN2CCc1ccccc1` [Compound 21, 3-((1S,5R,9R)-9-(2-Hydroxyethyl)-2-phenethyl-2-azabicyclo[3.3.1]nonan-5-yl)phenol]: 0%; `OCCC[C@H]1[C@H]2CCC[C@]1(c1cccc(O)c1)CCN2CCc1ccccc1` [Compound 34, 3-((1R,5S,9R)-9-(3-Hydroxypropyl)-2-phenethyl-2-azabicyclo[3.3.1]nonan-5-yl)phenol]: 3.1%.
Same read-out and setting: under `OCCC[C@H]1[C@@H]2CCC[C@@]1(c1cccc(O)c1)CCN2CCc1ccccc1` [Compound 36] stands 0%; under `COC[C@H]1[C@H]2CCC[C@]1(c1cccc(O)c1)CCN2CCc1ccccc1` [Compound 41, 3-((1R,5S,9R)-9-(Methoxymethyl)-2-phenethyl-2-azabicyclo[3.3.1]nonan-5-yl)phenol], 2.8%.

In the next data set the test system is squirrel monkeys (Saimiri sciureus). The data set is described as follows: Squirrel monkey ventilation (whole-body plethysmograph, air vs 5% CO2). In kind it is in vivo. The following applies: cumulative dosing, result in words. The protocol: These experiments were approved under IACUC protocol #2015N000165.
Ventilation measures were assessed as described previously. Briefly, squirrel monkeys were acclimated to a customized acrylic chamber (10′′d × 10′′w × 10′′h) that served as a whole-body plethysmograph (EMKA Technologies, Montreal, PQ, Canada). Gas (either air or a 5% CO2 in air mixture) was introduced to and extracted from the chamber at a constant flow rate of 5 L/min. Experimental sessions consisted of 4–6 consecutive 30 min cycles, each comprising a 20 min exposure to air followed by a 10 min exposure to 5% CO2. Drug effects were determined using cumulative dosing procedures, and injections were administered following each exposure to 5% CO2. Respiratory rate and tidal volume (mL/breath) were recorded over 1 min periods and were multiplied to provide minute volumes. Data from the last three minutes of each exposure to air or CO2 were averaged and used for analysis of drug effects on ventilation.
(§1) All statistical analyses and graphic representations were completed with GraphPad Prism version 9.3.0 (GraphPad Software, San Diego, CA, USA) using log-transformed values of doses. Group means ± SEM tail withdrawal latencies (in sec) and minute volume ratios are plotted as a function of drug dose. Data were analyzed using one-way ANOVA with significance set at p < 0.05, followed by Dunnett’s multiple comparison test.
Turning to `OC[C@H]1[C@@H]2CCC[C@@]1(c1cccc(O)c1)CCN2CCc1ccccc1` [Compound 15, 3-((1S,5R,9R)-9-(Hydroxymethyl)-2-phenethyl-2-azabicyclo[3.3.1]nonan-5-yl)phenol], the “respiratory depressant effects (ventilatory ratio: minute volumes in 5% CO2 vs room air)” value is on record as “limited respiratory depressant effects”.
On the same count and under the same terms, under `OCC[C@H]1[C@@H]2CCC[C@@]1(c1cccc(O)c1)CCN2CCc1ccccc1` [Compound 21, 3-((1S,5R,9R)-9-(2-Hydroxyethyl)-2-phenethyl-2-azabicyclo[3.3.1]nonan-5-yl)phenol] stands “reduced the ability of 5% CO2 to stimulate increases in ventilation”; under `OCCC[C@H]1[C@@H]2CCC[C@@]1(c1cccc(O)c1)CCN2CCc1ccccc1` [Compound 36], “limited respiratory depressant effects”.

The data set is the same for the next values; noted with them: ratio of minute volumes in 5% CO2 and room air.
As to `OCC[C@H]1[C@@H]2CCC[C@@]1(c1cccc(O)c1)CCN2CCc1ccccc1` [Compound 21, 3-((1S,5R,9R)-9-(2-Hydroxyethyl)-2-phenethyl-2-azabicyclo[3.3.1]nonan-5-yl)phenol], the “ventilatory ratio reached with increasing dose” value is on record as “above 2”.

A further data set concerns rodent.
Assay: not given
Further details: method as in PMID 17625813. The following applies: rodent antinociceptive assays; cited from earlier work.
Take `Oc1cccc([C@]23CCC[C@H]([C@H]2O)N(CCc2ccccc2)CC3)c1` [Compound 2]: the “times more potent than morphine” value is around 500 times.

In another data set the target is T1, human δ-opioid receptor (OPRD1). The experiment in a line: Forskolin-induced cAMP accumulation assay, DOR agonist.
Conditions: not given
Compound `OC[C@H]1[C@H]2CCC[C@]1(c1cccc(O)c1)CCN2CCc1ccccc1` [Compound 11, 3-((1R,5S,9R)-9-(Hydroxymethyl)-2-phenethyl-2-azabicyclo[3.3.1]nonan-5-yl)phenol] yielded a concentration giving a half-maximal response (EC50) of 8.5 ± 3.5 nM.
The same measure, in the same setting: next, `OC[C@H]1[C@@H]2CCC[C@@]1(c1cccc(O)c1)CCN2CCc1ccccc1` [Compound 15, 3-((1S,5R,9R)-9-(Hydroxymethyl)-2-phenethyl-2-azabicyclo[3.3.1]nonan-5-yl)phenol]: 0.6 ± 0.3 nM; `OCC[C@H]1[C@@H]2CCC[C@@]1(c1cccc(O)c1)CCN2CCc1ccccc1` [Compound 21, 3-((1S,5R,9R)-9-(2-Hydroxyethyl)-2-phenethyl-2-azabicyclo[3.3.1]nonan-5-yl)phenol]: 13 ± 3 nM.
On the same count and under the same terms, next, `OCCC[C@H]1[C@H]2CCC[C@]1(c1cccc(O)c1)CCN2CCc1ccccc1` [Compound 34, 3-((1R,5S,9R)-9-(3-Hydroxypropyl)-2-phenethyl-2-azabicyclo[3.3.1]nonan-5-yl)phenol]: above 10000 nM; `OCCC[C@H]1[C@@H]2CCC[C@@]1(c1cccc(O)c1)CCN2CCc1ccccc1` [Compound 36]: 102 ± 16 nM; `COC[C@H]1[C@H]2CCC[C@]1(c1cccc(O)c1)CCN2CCc1ccccc1` [Compound 41, 3-((1R,5S,9R)-9-(Methoxymethyl)-2-phenethyl-2-azabicyclo[3.3.1]nonan-5-yl)phenol]: 2.4 ± 1.6 nM.

Staying with this data set, now noted: cAMP assay; normalized to the forskolin control.
As for `OCC[C@H]1[C@@H]2CCC[C@@]1(c1cccc(O)c1)CCN2CCc1ccccc1` [Compound 21, 3-((1S,5R,9R)-9-(2-Hydroxyethyl)-2-phenethyl-2-azabicyclo[3.3.1]nonan-5-yl)phenol], the “DOR Agonist %Emax ± SEM” value turned out to be 39 ± 3%.

The same data set, now with this note: inhibition of forskolin-induced cAMP accumulation; CHO-K1 cells.
Take `OCCC[C@H]1[C@H]2CCC[C@]1(c1cccc(O)c1)CCN2CCc1ccccc1` [Compound 34, 3-((1R,5S,9R)-9-(3-Hydroxypropyl)-2-phenethyl-2-azabicyclo[3.3.1]nonan-5-yl)phenol]: the “DOR Agonist EC50 ± SEM (nM)” value was “no DOR agonist activity”.

The same data set, now with this note: read-out: DOR Agonist %Emax ± SEM, cAMP assay; normalized to the forskolin control.
With `OC[C@H]1[C@H]2CCC[C@]1(c1cccc(O)c1)CCN2CCc1ccccc1` [Compound 11, 3-((1R,5S,9R)-9-(Hydroxymethyl)-2-phenethyl-2-azabicyclo[3.3.1]nonan-5-yl)phenol], the Emax is 35%.
Take `OC[C@H]1[C@@H]2CCC[C@@]1(c1cccc(O)c1)CCN2CCc1ccccc1` [Compound 15, 3-((1S,5R,9R)-9-(Hydroxymethyl)-2-phenethyl-2-azabicyclo[3.3.1]nonan-5-yl)phenol]: the Emax is 17%.
In the case of `OCC[C@H]1[C@@H]2CCC[C@@]1(c1cccc(O)c1)CCN2CCc1ccccc1` [Compound 21, 3-((1S,5R,9R)-9-(2-Hydroxyethyl)-2-phenethyl-2-azabicyclo[3.3.1]nonan-5-yl)phenol], the maximum response (Emax) was 38%.
On the same count and under the same terms, under `OCCC[C@H]1[C@@H]2CCC[C@@]1(c1cccc(O)c1)CCN2CCc1ccccc1` [Compound 36] stands 41%; under `COC[C@H]1[C@H]2CCC[C@]1(c1cccc(O)c1)CCN2CCc1ccccc1` [Compound 41, 3-((1R,5S,9R)-9-(Methoxymethyl)-2-phenethyl-2-azabicyclo[3.3.1]nonan-5-yl)phenol], 20%.

The test system of another data set is squirrel monkeys (Saimiri sciureus). The data set is described as follows: Warm-water tail withdrawal in squirrel monkeys. In kind it is in vivo. The conditions noted are these: 52 °C water, cumulative dosing, n = 3 to 5. The protocol:
Male squirrel monkeys (Saimiri sciureus) were housed in a climate-controlled vivarium with a 12 h light/dark cycle (7 a.m.–7 p.m.) in the McLean Hospital Animal Care Facility (licensed by the U.S. Department of Agriculture and compliant with guidelines provided by the Committee on Care and Use of Laboratory Animals of the Institute of Laboratory Animals Resources, Commission on Life Sciences, National Research Council; 2011). These experiments were approved under IACUC protocol #2015N000165.
Tail withdrawal latencies were assessed as described previously. Briefly, monkeys were seated in customized Plexiglas chairs that allowed their tails to hang freely. Tail withdrawal latencies were measured by immersing the subject’s tail in water held at 35 °C or 52 °C (temperatures were presented in a randomized order during successive test components). After obtaining a baseline tail withdrawal latency, complete dose response curves were generated in each subject using standard cumulative dosing procedures. Briefly, every 15 min after an injection, tail withdrawal latencies at each temperature were redetermined and subjects were injected with the next dose, such that the total (cumulative) dose was increased by ½ log10 units in each successive cycle. This procedure was repeated until either (a) the tail withdrawal latency from 52 °C water reached the maximum allowable latency (10 s), or (b) tail withdrawal latency no longer increased with increases in dose of the test drug.
as §1
As for `OC[C@H]1[C@@H]2CCC[C@@]1(c1cccc(O)c1)CCN2CCc1ccccc1` [Compound 15, 3-((1S,5R,9R)-9-(Hydroxymethyl)-2-phenethyl-2-azabicyclo[3.3.1]nonan-5-yl)phenol], the “antinociceptive effects (tail withdrawal latency)” value (from here on “antinociceptive effects”) was “did not significantly increase tail withdrawal latency”.
Regarding `OCC[C@H]1[C@@H]2CCC[C@@]1(c1cccc(O)c1)CCN2CCc1ccccc1` [Compound 21, 3-((1S,5R,9R)-9-(2-Hydroxyethyl)-2-phenethyl-2-azabicyclo[3.3.1]nonan-5-yl)phenol], the “antinociceptive effects” value was “significantly increased tail withdrawal latency; also recorded: full antinociceptive effects in three of four subjects”.
Turning to `OCCC[C@H]1[C@@H]2CCC[C@@]1(c1cccc(O)c1)CCN2CCc1ccccc1` [Compound 36], the “antinociceptive effects” value is listed as “did not significantly increase tail withdrawal latency”.
In the case of `CN1CC[C@]23c4c5ccc(O)c4O[C@H]2[C@@H](O)C=C[C@H]3[C@H]1C5` [Morphine, reference compound], the “antinociceptive effects” value was “significantly increased tail withdrawal latency”.
